From patent publication US20050197350A1, “Novel quinoline, tetrahydroquinazoline, and pyrimidine derivatives and methods of treatment related to the use thereof” (TAISHO PHARMACEUTICAL CO., LTD., priority 2003, published 2005)

Each compound was assayed on MCH receptors (assay: MCH receptor activity class (method not given)). Settings: class by percent of control at 10^−7 M or IC50.

| SMILES | class |
| --- | --- |
| Cc1cnc(N[C@H]2CC[C@@H](C(=O)N[C@H](C)c3cccc4ccccc34)CC2)nc1N(C)C [compound 2782, cis-4-{[4-(dimethylamino)-5-methylpyrimidin-2-yl]amino}-N-[(1R)-1-(1-naphthyl)ethyl]cyclohexanecarboxamide] | 1 (Class 1: The value of percent of control at 10^−7 M was less than 40% or the value of IC50 was less than 50 nM.) |
| Cc1cnc(N[C@H]2CC[C@@H](C(=O)Nc3cccc(F)c3)CC2)nc1N(C)C [compound 2784, cis-4-{[4-(dimethylamino)-5-methylpyrimidin-2-yl]amino}-N-(3-fluorophenyl)cyclohexanecarboxamide] | 2 (Class 2: The value of percent of control at 10^−7 M was from 40% to 60% or the value of IC′50 was from 50 nM to 200 nM.) |
| CCCc1ccc(NC(=O)[C@H]2CC[C@@H](Nc3ncc(C)c(N(C)C)n3)CC2)cc1 [compound 2785] | 2 (Class 2: The value of percent of control at 10^−7 M was from 40% to 60% or the value of IC′50 was from 50 nM to 200 nM.) |
| COc1ccc(NC(=O)[C@H]2CC[C@@H](Nc3ncc(C)c(N(C)C)n3)CC2)cc1 [compound 2786] | 3 (Class 3 The value of percent of control at 10^−7 M was more than 60% or the value of IC50 was more than 200 nM.) |
| COc1cccc(NC(=O)[C@H]2CC[C@@H](Nc3ncc(C)c(N(C)C)n3)CC2)c1 [compound 2787, cis-4-{[4-(dimethylamino)-5-methylpyrimidin-2-yl]amino}-N-(3-methoxyphenyl)cyclohexanecarboxamide] | 1 (Class 1: The value of percent of control at 10^−7 M was less than 40% or the value of IC50 was less than 50 nM.) |
| Cc1cnc(N[C@H]2CC[C@@H](C(=O)Nc3cccc(Cl)c3)CC2)nc1N(C)C [compound 2788, cis-N-(3-chlorophenyl)-4-{[4-(dimethylamino)-5-methylpyrimidin-2-yl]amino}cyclohexanecarboxamide] | 1 (Class 1: The value of percent of control at 10^−7 M was less than 40% or the value of IC50 was less than 50 nM.) |
| Cc1cnc(N[C@H]2CC[C@@H](C(=O)Nc3ccccc3Br)CC2)nc1N(C)C [compound 2789] | 3 (Class 3 The value of percent of control at 10^−7 M was more than 60% or the value of IC50 was more than 200 nM.) |
| Cc1cnc(N[C@H]2CC[C@@H](C(=O)N[C@H]3C[C@@H]3c3ccccc3)CC2)nc1N(C)C [compound 2790, cis-4-{[4-(dimethylamino)-5-methylpyrimidin-2-yl]amino}-N-[(1S,2R)-2-phenylcyclopropyl]cyclohexanecarboxamide] | 1 (Class 1: The value of percent of control at 10^−7 M was less than 40% or the value of IC50 was less than 50 nM.) |
| Cc1cnc(N[C@H]2CC[C@@H](C(=O)Nc3ccc(C(F)(F)F)cc3)CC2)nc1N(C)C [compound 2791, cis-4-{[4-(dimethylamino)-5-methylpyrimidin-2-yl]amino}-N-[4-(trifluoromethyl)phenyl]cyclohexanecarboxamide] | 1 (Class 1: The value of percent of control at 10^−7 M was less than 40% or the value of IC50 was less than 50 nM.) |
| CSc1ccccc1NC(=O)[C@H]1CC[C@@H](Nc2ncc(C)c(N(C)C)n2)CC1 [compound 2792] | 2 (Class 2: The value of percent of control at 10^−7 M was from 40% to 60% or the value of IC′50 was from 50 nM to 200 nM.) |
| Cc1cnc(N[C@H]2CC[C@@H](C(=O)N3CCc4ccccc4C3)CC2)nc1N(C)C [compound 2793] | 3 (Class 3 The value of percent of control at 10^−7 M was more than 60% or the value of IC50 was more than 200 nM.) |
| Cc1ccc([C@H](C)NC(=O)[C@H]2CC[C@@H](Nc3nc(C)cc(N(C)C)n3)CC2)cc1 [compound 2795] | 1 (Class 1: The value of percent of control at 10^−7 M was less than 40% or the value of IC50 was less than 50 nM.) |
| COc1cccc([C@@H](C)NC(=O)[C@H]2CC[C@@H](Nc3nc(C)cc(N(C)C)n3)CC2)c1 [compound 2796, cis-4-{[4-(dimethylamino)-6-methylpyrimidin-2-yl]amino}-N-[(1R)-1-(3-methoxyphenyl)ethyl]cyclohexanecarboxamide] | 2 (Class 2: The value of percent of control at 10^−7 M was from 40% to 60% or the value of IC′50 was from 50 nM to 200 nM.) |
| Cc1cc(N(C)C)nc(N[C@H]2CC[C@@H](C(=O)N[C@@H](C)c3ccc(Cl)cc3)CC2)n1 [compound 2797, cis-N-[(1S)-1-(4-chlorophenyl)ethyl]-4-{[4-(dimethylamino)-6-methylpyrimidin-2-yl]amino}cyclohexanecarboxamide] | 1 (Class 1: The value of percent of control at 10^−7 M was less than 40% or the value of IC50 was less than 50 nM.) |
| Cc1cc(N(C)C)nc(N[C@H]2CC[C@@H](C(=O)NCc3ccccc3)CC2)n1 [compound 2798, cis-N-benzyl-4-{[4-(dimethylamino)-6-methylpyrimidin-2-yl]amino}cyclohexanecarboxamide] | 2 (Class 2: The value of percent of control at 10^−7 M was from 40% to 60% or the value of IC′50 was from 50 nM to 200 nM.) |
| Cc1cc(N(C)C)nc(N[C@H]2CC[C@@H](C(=O)NCc3ccc(F)cc3)CC2)n1 [compound 2799, cis-4-{[4-(dimethylamino)-6-methylpyrimidin-2-yl]amino}-N-(4-fluorobenzyl)cyclohexanecarboxamide] | 2 (Class 2: The value of percent of control at 10^−7 M was from 40% to 60% or the value of IC′50 was from 50 nM to 200 nM.) |
| Cc1cc(N(C)C)nc(N[C@H]2CC[C@@H](C(=O)NCc3ccccc3F)CC2)n1 [compound 2800] | 2 (Class 2: The value of percent of control at 10^−7 M was from 40% to 60% or the value of IC′50 was from 50 nM to 200 nM.) |
| Cc1cc(N(C)C)nc(N[C@H]2CC[C@@H](C(=O)NCc3ccc(F)c(F)c3)CC2)n1 [compound 2801, cis-N-(3,4-difluorobenzyl)-4-{[4-(dimethylamino)-6-methylpyrimidin-2-yl]amino}cyclohexanecarboxamide] | 1 (Class 1: The value of percent of control at 10^−7 M was less than 40% or the value of IC50 was less than 50 nM.) |
| COc1ccc([C@H](C)NC(=O)[C@H]2CC[C@@H](Nc3nc(C)cc(N(C)C)n3)CC2)cc1 [compound 2802, cis-4-{[4-(dimethylamino)-6-methylpyrimidin-2-yl]amino}-N-[(1S)-1-(4-methoxyphenyl)ethyl]cyclohexanecarboxamide] | 1 (Class 1: The value of percent of control at 10^−7 M was less than 40% or the value of IC50 was less than 50 nM.) |
| COc1cccc([C@H](C)NC(=O)[C@H]2CC[C@@H](Nc3nc(C)cc(N(C)C)n3)CC2)c1 [compound 2803, cis-4-{[4-(dimethylamino)-6-methylpyrimidin-2-yl]amino}-N-[(1S)-1-(3-methoxyphenyl)ethyl]cyclohexanecarboxamide] | 2 (Class 2: The value of percent of control at 10^−7 M was from 40% to 60% or the value of IC′50 was from 50 nM to 200 nM.) |
| Cc1cc(N(C)C)nc(N[C@H]2CC[C@@H](C(=O)N[C@H](C)c3ccc(F)cc3)CC2)n1 [compound 2804] | 2 (Class 2: The value of percent of control at 10^−7 M was from 40% to 60% or the value of IC′50 was from 50 nM to 200 nM.) |
| Cc1cc(N(C)C)nc(N[C@H]2CC[C@@H](C(=O)N[C@H](C)c3ccc(Cl)cc3)CC2)n1 [compound 2805, cis-N-[(1R)-1-(4-chlorophenyl)ethyl]-4-{[4-(dimethylamino)-6-methylpyrimidin-2-yl]amino}cyclohexanecarboxamide] | 1 (Class 1: The value of percent of control at 10^−7 M was less than 40% or the value of IC50 was less than 50 nM.) |
| Cc1cc(N(C)C)nc(N[C@H]2CC[C@@H](C(=O)NCc3cccc(I)c3)CC2)n1 [compound 2806, cis-4-{[4-(dimethylamino)-6-methylpyrimidin-2-yl]amino}-N-(3-iodobenzyl)cyclohexanecarboxamide] | 1 (Class 1: The value of percent of control at 10^−7 M was less than 40% or the value of IC50 was less than 50 nM.) |
| Cc1cc(N(C)C)nc(N[C@H]2CC[C@@H](C(=O)NCc3ccc(Cl)cc3Cl)CC2)n1 [compound 2807, cis-N-(2,4-dichlorobenzyl)-4-{[4-(dimethylamino)-6-methylpyrimidin-2-yl]amino}cyclohexanecarboxamide] | 1 (Class 1: The value of percent of control at 10^−7 M was less than 40% or the value of IC50 was less than 50 nM.) |
| Cc1cc(N(C)C)nc(N[C@H]2CC[C@@H](C(=O)NCc3cc(Cl)ccc3Cl)CC2)n1 [compound 2808, cis-N-(2,5-dichlorobenzyl)-4-{[4-(dimethylamino)-6-methylpyrimidin-2-yl]amino}cyclohexanecarboxamide] | 1 (Class 1: The value of percent of control at 10^−7 M was less than 40% or the value of IC50 was less than 50 nM.) |
| Cc1ccc(CNC(=O)[C@H]2CC[C@@H](Nc3nc(C)cc(N(C)C)n3)CC2)cc1 [compound 2809, cis-4-{[4-(dimethylamino)-6-methylpyrimidin-2-yl]amino}-N-(4-methylbenzyl)cyclohexanecarboxamide] | 1 (Class 1: The value of percent of control at 10^−7 M was less than 40% or the value of IC50 was less than 50 nM.) |
| Cc1cc(N(C)C)nc(N[C@H]2CC[C@@H](C(=O)NCc3cc(Cl)cc(Cl)c3)CC2)n1 [compound 2810, cis-N-(3,5-dichlorobenzyl)-4-{[4-(dimethylamino)-6-methylpyrimidin-2-yl]amino}cyclohexanecarboxamide] | 1 (Class 1: The value of percent of control at 10^−7 M was less than 40% or the value of IC50 was less than 50 nM.) |
| COc1cc(CNC(=O)[C@H]2CC[C@@H](Nc3nc(C)cc(N(C)C)n3)CC2)cc(OC)c1 [compound 2811, cis-N-(3,5-dimethoxybenzyl)-4-{[4-(dimethylamino)-6-methylpyrimidin-2-yl]amino}cyclohexanecarboxamide] | 1 (Class 1: The value of percent of control at 10^−7 M was less than 40% or the value of IC50 was less than 50 nM.) |
| Cc1cc(N(C)C)nc(N[C@H]2CC[C@@H](C(=O)NCc3cccc(Cl)c3)CC2)n1 [compound 2812, cis-N-(3-chlorobenzyl)-4-{[4-(dimethylamino)-6-methylpyrimidin-2-yl]amino}cyclohexanecarboxamide] | 1 (Class 1: The value of percent of control at 10^−7 M was less than 40% or the value of IC50 was less than 50 nM.) |
